Experiment: Pharmacokinetic testing of olopatadine 0.6% nasal spray in clinical trials (plasma level by HPLC)
Assay type: in vivo
Settings: human subjects, formulation containing 0.6% olopatadine, two sprays/nostril twice per day, intranasal

- time post-dose at which peak plasma concentration was measured: 0.5 to 2 h
- peak plasma concentration of olopatadine (C.), observed range (plasma, high performance liquid chromatography): 14.4 to 35.3 ng/mL
- peak plasma concentration of olopatadine (C.), mean (plasma, mean +/- spread): 23.3 ± 6.1 ng/mL
Structure (SMILES): CN(C)CC/C=C1/c2ccccc2COc2ccc(CC(=O)O)cc21 [olopatadine, Z-11-(3-dimethylaminopropylidene)-6,11-dihydrodibenz[b,e]oxepine-2-acetic acid]

From patent US20140227326A1, “METHOD OF DELIVERING NASAL SPRAY” (priority 2004, published 2014)
